# From patent publication US20130109636A1, “TRI-AMINO RELEASING FULVATE” (priority 2011, published 2013)
# What was measured:
# Assay type in all cases: in vivo
# [1] = vasodilatation / acceleration of microcirculation
# Source text: (§1) This acceleration of microcirculation has many positive benefits.
# anti-inflammatory = details: in all forms
# wound healing = experiment: wound healing
# Source text: as §1
# pain relief = details: wounds such as burns and skin lesions
# prostate = details: swollen prostate
# hypertension = details: encapsulated
substance,measurement,setting,value
lithio-arginino-glycino-parabenzene-fulvate [Li-TAFA],vasodilatation qualities / acceleration of microcirculation,[1]; used topically or internally,exhibited vasodilatation qualities
same,toxic side effects,[1]; used topically or internally to accelerate microcirculation,without toxic side effects
same,reduction of inflammation and of resulting discomfort,anti-inflammatory,shown the ability to reduce inflammation and control the discomfort resulting from inflammation
same,"healing of wounds, burns and chronic lesions","wound healing; lesions healed: 3rd degree radiation burns, squamous and basal cell carcinoma, psoriasis, venous stasis ulcers, decubitus ulcers, deep surgical wounding, herpes","exhibited the ability to aid and accelerate the healing of wounds, burns (of all degrees) and several types of chronic lesions"
same,scar formation,wound healing; radiation burns of the 3rd degree,complete suppression of scar formation
same,pain relief,pain relief,"demonstrated substantial pain relief, without diminishing topical sensation"
same,prostate size,prostate,demonstrated the ability to shrink a swollen prostate to normal size
same,reduction of hypertension,hypertension,demonstrated the ability to reduce hypertension
same,toxic side effects,hypertension,without toxic side effects
